In patent publication US20180289655A1, “Methods and Compositions for the Intravenous Administration of Fumarates for the Treatment of Neurological Diseases” (Biogen MA Inc., priority 2015, published 2018):
Entries after “also recorded” stand apart in the source; their conditions may differ. Where a name gives a salt, the structure may show the parent alone.

Key:
[1] = Solubility of DMF in HPbCD, Captisol, saline and D5W at ambient temperature; assay type: physicochemical; settings: thermodynamic from solid
Method: Solubility of DMF in these media was determined at ambient temperature by preparing a saturated solution.

[2] = DMF IV formulation development: solubility in solvents and excipient vehicles; assay type: physicochemical
Method: 2. […] For example, 2% DMSO (0.1 ml/kg/5 ml/kg*100%=2.0%), 10% PEG400 (1 ml/kg/5 ml/kg*50%=10%) and 20% Captisol (sulfobutyl ether cyclodextrin) (5 ml/kg/5 ml/kg*20%=20%) could be used for rodent IV formulation assumed the dosage of 5 ml/kg. 3. […] The studies were performed by making the PEG400 stock solution and diluting the solution with different vehicles (Table 16). […] 4.

[3] = MMF exposure in plasma and tissues after DMF PO or IV once daily for 5 days (LC-MS/MS); assay type: in vivo, Sprague-Dawley rats
Method: On Day 5 of the study 3 time points were evaluated: 10 minutes, 2 hours, and 6 hours after dosing, as illustrated in the timeline. At each time point, 5 animals from each group were sacrificed. At the 2 and 6 hour time points, the tissue samples from groups E, F, I, and J from each animal were split, with half of the tissue being processed for MMF exposure, and half processed for qRT-PCR. Note vehicle groups (C, D, G, and H) were not processed for MMF measurement and only used for qRT-PCR.
At 10 minutes, 2 and 6 hours, plasma and tissues (forebrain, cerebellum, jejunum, kidney and spleen) from cohorts of animals (Groups A, B, E, F, I, J) were collected to measure the concentration of MMF in the sample. MMF was quantitated using a non-GLP, but validated LC/MS/MS assay. Statistical comparisons were performed using the non-parametric Mann-Whitney U test.
As mentioned previously, Sprague-Dawley rats were sacrificed and terminal plasma and tissue samples were collected 10 minutes, 2 and 6 hours after dosing and MMF exposure in plasma, brain, cerebellum, jejunum and kidney was determined as follows. Tissues were snap frozen on dry ice after dissection. Immediately prior to blood collection, 4 μL of 250 mg/mL stock mixture of sodium fluoride (NaF) in water was added to each 100 μL of blood collected in a lithium heparin tube. The stock NaF mixture was prepared on the day of use and kept as a homogenous suspension through continuous stirring on a stir plate. Whole blood was added to the tube, and then samples were inverted several times and stored on wet ice (2° C. to 8° C.). All samples were centrifuged within 30 minutes of collection at 4° C. for 15 minutes at 1500×g (4200 RPM). Plasma was then transferred into pre-chilled tubes, immediately frozen on dry ice and maintained frozen (≤−80° C.) until analysis.
Aliquots (50 μL) of either plasma or tissue homogenate samples were extracted by protein precipitation with acetonitrile containing methylethyl fumarate or −4C13-MMF as the internal standard. For tissue samples, aliquots of homogenization solution (‘blank’ plasma with 12.5 mg/mL of NaF) were added to the tissue samples. The tissue samples were homogenized at 6.5 m/s for 60 seconds on a Fast Prep Tissue Homogenizer prior to protein precipitation. Concentrations of MMF in plasma, forebrain, cerebellum, jejunum, spleen and kidney samples were determined using qualified LC-MS/MS assays in the respective matrices. Data collection and integration was accomplished using an API 5500 triple quadrupole mass spectrometer with a turbo ion spray interface (AB Sciex, Foster City, Calif.), and Analyst software (version 1.6.1). The peak area ratios of MMF relative to its internal standard were used to construct a standard curve using a quadratic regression with a 1/x^2 weighting. The lower limit of quantitation (LLOQ) was 10 ng/mL for all four assays. The performances of the assays were monitored by the precision and accuracy of the standards and quality control samples.

## COC(=O)/C=C/C(=O)OC [DMF, dimethyl fumarate]
[1]; aqueous with cosolvent or surfactant or cyclodextrin, 40% Captisol, pH 4.42
  solubility at 24 h: 7900 µg/mL
[1]; pH 3.9, aqueous with cosolvent or surfactant or cyclodextrin, 40% HPbCD, pH 3.90
  solubility at 24 h: 15100 µg/mL
[1]; pH 4.3, aqueous with cosolvent or surfactant or cyclodextrin, 5% HPbCD, pH 4.30
  solubility at 24 h: 4030 µg/mL
[1]; pH 4.8, aqueous with cosolvent or surfactant or cyclodextrin, 5% Captisol, pH 4.80
  solubility at 24 h: 3180 µg/mL
[1]; saline or isotonic, D5W (5% Dextrose in water), pH 6.32
  solubility at 24 h: 2390 µg/mL
[1]; saline or isotonic, Saline (0.9% NaCl), pH 6.67
  solubility at 24 h: 2080 µg/mL
[2]; 5 mg/ml DMF in 15% HPbCD, heating then cooling to room temperature, final pH 3.51
  Solution or precipitated: solution
[2]; 5 mg/ml DMF in 20% Captisol, heating then cooling to room temperature, final pH 4.71
  Solution or precipitated: clear solution could be achieved
[2]; 10% PEG400 + 0.5% HPMC
  Suitable for 5 mg/ml dosage?: No
[2]; 10% PEG400 + 0.5% HPMC + 0.2% SDS
  Suitable for 5 mg/ml dosage?: No
[2]; 10% PEG400 + 0.5% HPMC + 0.2% SDS, final concentration 2.8 mg/ml
  Solution or precipitated: precipitated
[2]; 10% PEG400 + 0.5% HPMC, final concentration 2.8 mg/ml
  Solution or precipitated: precipitated
[2]; 10% PEG400 + 1.5% Poloxamer 188
  Suitable for 5 mg/ml dosage?: No
[2]; 10% PEG400 + 1.5% Poloxamer 188, final concentration 2.8 mg/ml
  Solution or precipitated: precipitated
[2]; 10% PEG400 + 1.5% Poloxamer 237
  Suitable for 5 mg/ml dosage?: No
[2]; 10% PEG400 + 1.5% Poloxamer 237, final concentration 2.8 mg/ml
  Solution or precipitated: precipitated
[2]; 10% PEG400 + 2.0% Tween 80
  Suitable for 5 mg/ml dosage?: No
[2]; 10% PEG400 + 2.0% Tween 80, final concentration 2.8 mg/ml
  Solution or precipitated: precipitated
[2]; 10% PEG400 + 15% HPbCD
  Suitable for 5 mg/ml dosage?: Might be
[2]; 10% PEG400 + 15% HPbCD, final concentration 2.8 mg/ml
  Solution or precipitated: generated clear solutions at 2.8 mg/ml; also recorded: Clear solution
[2]; 10% PEG400 + 20% Captisol
  Suitable for 5 mg/ml dosage?: Might be
[2]; 10% PEG400 + 20% Captisol, final concentration 2.8 mg/ml
  Solution or precipitated: generated clear solutions at 2.8 mg/ml; also recorded: Clear solution
[2]; 10% PEG400 + D5W
  Suitable for 5 mg/ml dosage?: No
[2]; 10% PEG400 + D5W phosphate buffer (pH 6.0)
  Suitable for 5 mg/ml dosage?: No
[2]; 10% PEG400 + D5W phosphate buffer (pH 6.0), final concentration 2.8 mg/ml
  Solution or precipitated: precipitated
[2]; 10% PEG400 + D5W, final concentration 2.8 mg/ml
  Solution or precipitated: precipitated
[2]; 10% PEG400 + H2O
  Suitable for 5 mg/ml dosage?: No
[2]; 10% PEG400 + H2O, final concentration 2.8 mg/ml
  Solution or precipitated: precipitated
[2]; 10% PEG400 + Saline (pH 7)
  Suitable for 5 mg/ml dosage?: No
[2]; 10% PEG400 + Saline (pH 7), final concentration 2.8 mg/ml
  Solution or precipitated: precipitated
[2]; 20% Captisol, final pH 4.71
  Suitable for 5 mg/ml dosage?: Might be, 5 mg/ml solution could be
[2]; DMSO (pure solvent), organic solvent or mixture
  solubility: 23000 to 29000 µg/mL
[2]; PEG400, organic solvent or mixture
  solubility: 38000 to 46000 µg/mL
[2]; ethanol, organic solvent or mixture
  solubility: < 20000 µg/mL
[2]; organic solvent or mixture, propylene Glycol (PG)
  solubility: < 20000 µg/mL
[3]; 6 hours after IV or PO DMF dosing
  MMF level in any tissue: no detectable MMF in any tissue
[3]; 6 hours after dosing, PO or IV
  MMF level in forebrain or cerebellum: undetectable
[3]; DMF IV 30 mg/kg, 2 hours
  MMF level in any tissue: no MMF was detectable in any tissue
  MMF level in brain: below the level of quantitation
[3]; DMF IV 30 mg/kg, 6 hours
  MMF level in plasma: not detectable
[3]; DMF PO 100 mg/kg, 2 hours
  MMF levels in kidney, jejunum and spleen: markedly decreased, but detectable
[3]; PO 100 mg/kg vs IV 30 mg/kg, 10 minutes
  MMF levels in jejunum, kidney and spleen, PO versus IV: these differences were not significant
